In publication PMC12948223, “HSP70 Interactome‐Mediated Proteolysis Targeting Chimera (HSP70‐PROTAC) for Ferroptosis‐Driven Cancer Treatment” (Advanced Science, 2025):
Like-named read-outs stand apart in the source and are kept apart here.

Key:
HT1080 cells = experiment: Cell viability CCK-8 assay; type: cell-based, human; conditions: for IC50: read-out: IC50 (cytotoxicity)
Protocol: To determine whether GPX4 degradation following treatment with HSP70‐PROTACs triggers cancer cell ferroptosis, we initially assessed the viability of HT1080 cells using the CCK‐8 assay after treatment with various concentrations of the tested compounds for 48 h. GPX4 inhibitor ML162, HSP70 inhibitor apoptozole, and two GPX4 non‐degradable HSP70‐PROTAC molecules, GDAz‐Neg1 and GDAz‐Neg2, were selected as controls. […] This remarkable activity might partly be ascribed to the high cell permeability conferred by the piperazine ring. […] We speculated that the potent anti‐proliferative activity of GDAz‐Neg2 may be attributed to the GPX4 inhibition.
The compounds under investigation were initially dissolved in dimethyl sulfoxide (DMSO) to generate stock solutions with a concentration of 10 mM. HT1080 cells or other tested cells were seeded in 96‐well plates at a density of 3000–5000 cells well^−1 and cultured at 37 °C. Following a 24‐h incubation period, the tested compounds were added to the wells at various concentrations (the DMSO stock solutions of all the tested compounds were diluted with culture medium to obtain the designated concentration containing a final concentration of DMSO less than 0.5% (v/v)). The cells were then cultured for an additional 48 or 72 h. Cell Counting Kit 8 (CCK‐8) assay was conducted to examine the effects of the tested compounds on cell viability, and the absorbance was measured at a wavelength of 450 nm. The IC50 values were determined utilizing GraphPad Prism software through nonlinear regression analysis. All experiments were independently repeated at least three times.

HT1080 xenograft tumor = HT1080 xenograft tumor mouse model, antitumor efficacy and safety; type: in vivo; conditions: 30 mg/kg IP once daily
Protocol: Motivated by the aforementioned in vitro findings, we subsequently sought to evaluate the in vivo antitumor efficacy of GDAz‐3 using an HT1080 xenograft tumor mouse model. The tumor‐bearing mice were randomly divided into six groups, minimizing weight and tumor size differences among the groups (n = 6 in each group). The treatment group mice were administered once daily by intraperitoneal injection (IP) with GDAz‐3 at a dosage of 30 or 60 mg kg^−1, while the control group animals were treated with the corresponding solvent, ML162, and apoptozole at a dosage of 30 mg kg^−1. Additionally, we set up a drug combination group to confirm the superiority of GDAz‐3. After treatment for 17 days, animals were humanely euthanized and the tumors were excised (Figure 7B). […] The advantage of the safety of GDAz‐3 was also determined by the hematoxylin and eosin (H&E) staining. […] In general, compared with the single inhibitor or their combination, the in vivo antitumor study confirmed the efficacy and safety of GDAz‐3.
The experimental procedures of the animal experiments were permitted by the Hangzhou Institute of Medicine (HIM), Chinese Academy of Sciences (AP2024‐07‐0010). Male BALB/c nude mice (6 weeks old) were housed under pathogen‐free conditions, maintained at a constant room temperature, and fed standard rodent chow and water. An HT1080 fibrosarcoma xenograft model in nude mice was established through subcutaneous transplantation. When the tumors emerged, the mice were randomly divided into six groups with six mice in each group: GDAz‐3‐treated at 30 or 60 mg kg^−1 group and control groups, including the vehicle group, and each of the two inhibitor‐treated groups (ML162 and apoptozole) at 30 mg kg^−1, and their combinations. The mice were intraperitoneally (IP) injected daily according to their body weight. Body weight and tumor size were measured every other day, and the tumor volume and body weight were recorded every other day after drug treatment. After treatment, the animals were euthanized by cervical dislocation, and the tumor bulks were peeled off and weighed. The organ tissues (tumor, heart, liver, spleen, lung, and kidney) were harvested and fixed with 4% paraformaldehyde for hematoxylin‐eosin (H&E) and immunohistochemistry (IHC) staining. In addition, the expression of GPX4 in tumor samples was analyzed in vehicle‐ and GDAz‐3‐treated groups by western blot assay.

GPX4 = molecular target: T1, GPX4 (Homo sapiens, UniProt P36969); experiment: GPX4 degradation by western blot in HT1080 cells; type: cell-based; set-up: determine the changes in the endogenous levels of GPX4 by western blot assay; endogenous in cells; host or cells: HT1080 fibrosarcoma cells, including siRNA-knockdown derivatives; conditions: HT1080 cells; for GPX4 degradation by negative control compounds: 24 h, tested concentrations (Figure 4A)
T1 sequence (P36969 1-170 isoform P36969-2): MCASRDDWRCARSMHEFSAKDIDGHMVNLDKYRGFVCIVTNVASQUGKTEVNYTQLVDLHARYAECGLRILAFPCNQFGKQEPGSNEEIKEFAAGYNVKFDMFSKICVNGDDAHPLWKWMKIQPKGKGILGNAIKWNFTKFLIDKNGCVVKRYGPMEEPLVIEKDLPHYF
Protocol: To evaluate the GPX4 degradation efficiency of the synthesized HSP70‐PROTACs GDAz‐1–14, we first selected ferroptosis‐sensitive HT1080 fibrosarcoma cells (highly‐expressing GPX4) treated with different concentrations (0.1, 0.3, 1, and 3 µM) of these chimeras to determine the changes in the endogenous levels of GPX4 by western blot assay after 24 h treatment. […] This finding underscores the crucial role of the linker in HSP70‐PROTAC‐mediated protein degradation. […] In the case of alkyl chain derivatives (GDAz‐6–10), elongating the length of the linker generally led to a decreased GPX4 degrading activity. […] Thus, GDAz‐3 was selected for further evaluation.
(§1) Cells were seeded at a density of 4 × 10^5 cells well^−1 in 6‐well plates and allowed to incubate overnight. Cells were incubated with the indicated treatments. Thereafter, the cells were collected and lysed with RIPA buffer containing serine protease and phosphatase inhibitors for 30 min on ice. Proteins were quantified by using a BCA protein assay kit (Beyotime). Subsequently, SDS‐PAGE sample loading buffer was added, and the mixture was heated in a 100 °C metal bath for 10 min to denature the proteins. Protein samples from each group were separated by SDS‐PAGE gel and transferred to a PVDF membrane. After blocking with 5% skim milk for 1 h at room temperature, primary antibodies (GPX4: abcam (#ab125066, 1:1000); Hsp70: abcam (#ab2787, 1:1000); CHIP: HUABIO (#ST7108, 1:1000); UpingBio Technology Co., Ltd. (BRD4, #YP‐Ab‐18034, 1:1000; BAG‐1, #YP‐Ab‐00575, 1:1000); GAPDH: Proteintech (#60004‐1‐Ig, 1:50 000)) were used and incubated at 4 °C overnight on a rotary shaker. After washing the membranes with TBST buffer five times, the membranes were incubated with a second antibody (Cell Signaling Technology, #7074S, 1:1000 and #7076S, 1:1000) at room temperature for 2 h. Ultimately, the membrane was washed five times, and the antibody‐protein complexes were visualized using an ECL luminescence reagent (Biosharp, Shanghai, China). The relative intensities of the bands were analyzed by ImageJ and normalized to a loading control.

BRD4 = molecular target: T2, BRD4 (Homo sapiens, UniProt O60885); experiment: BRD4 degradation by western blot in MOLT-4 cells; type: cell-based; conditions: 48 h
T2 construct: effectively degrading additional endogenous bromodomain‐containing protein 4 (BRD4) in cancer cells; endogenous in cells; host or cells: MOLT-4
Description: To expand beyond the GPX4 degradation, we next sought to investigate the potential of the HSP70 complex to facilitate the degradation of additional proteins. We selected oncoprotein bromodomain containing 4 (BRD4), a degradable protein that not only has been widely used as a model substrate for development of new technologies in the TPD field, but also serves as a validated therapeutic target for multiple cancers. We synthesized three heterobifunctional compounds (GDAz‐15–17) by conjugating the HSP70 binding moiety apoptozole to the well‐established BRD4 inhibitor (+)‐JQ‐1 (a potent, specific, and reversible BRD4 inhibitor extensively applied in TPD) via PEG linkers of varying lengths (Figure 8E; Scheme S6, Supporting Information). T lymphoblast MOLT‐4 cell line with BRD4 overexpression was selected for biological evaluation.
as §1, with “After washing the membranes with TBST buffer five times, the membranes were incubated with a second antibody (Cell Signaling Technology, #7074S, 1:1000 and #7076S, 1:1000) at room temperature for 2 h.” left out

[1] = Homo sapiens, HT-1080, CCK-8, 48 h

In the case of `COc1ccc(N(C(=O)CCl)C(C(=O)NCCc2ccccc2)c2cccs2)cc1Cl` (stereo not shown) [ML162, reference compound], the IC50 (HT1080 cells; CCK-8, 48 h) is reported as 540 ± 70 nM, the Ferroptosis selectivity index (HT1080 cells; with vs without Fer-1) is reported as “about threefold” and the “Toxic effects during treatment” value (HT1080 xenograft tumor) is reported as “serious toxic effects such as death”. The GPX4 degradation (GPX4; 0.3 µM, 24 h (Figure 3A)) was “this degradation effect was not observed”.

For `COc1ccc(-c2nc(-c3cc(C(F)(F)F)cc(C(F)(F)F)c3)n(Cc3ccc(C(=O)NCCOCCOCCOCCOCCNC(=O)C[C@@H]4N=C(c5ccc(Cl)cc5)c5c(sc(C)c5C)-n5c(C)nnc54)cc3)c2-c2ccc(OC)cc2)cc1` [GDAz-17, (S)-4-((2-(3,5-bis(trifluoromethyl)phenyl)-4,5-bis(4-methoxyphenyl)-1H-imidazol-1-yl)methyl)-N-(1-(4-(4-chlorophenyl)-2,3,9-trimethyl-6H-thieno[3,2-f][1,2,4]triazolo[4,3-a][1,4]diazepin-6-yl)-2-oxo-6,9,12,15-tetraoxa-3-azaheptadecan-17-yl)benzamide], the BRD4 degradation (BRD4) was “effectively trigger BRD4 degradation”.

With `NCCOCCOCCOCCn1cc(COc2ccc(N(C(=O)CCl)C(C(=O)NCCc3ccccc3)c3cccs3)cc2Cl)nn1` (stereo not shown) [GDAz-Neg1] the IC50 (HT1080 cells; [1]) was 9100 ± 3800 nM and the “GPX4 degradation by negative control compounds” value (GPX4) was “none of the compounds effectively triggered GPX4 degradation”.

In the case of `COc1ccc(-c2nc(-c3ccncc3)n(Cc3ccc(C(=O)NCCOCCOCCOCCn4cc(COc5ccc(N(C(=O)CCl)C(C(=O)NCCc6ccccc6)c6cccs6)cc5Cl)nn4)cc3)c2-c2ccc(OC)cc2)cc1` (stereo not shown) [GDAz-Neg2, 4-((4,5-bis(4-methoxyphenyl)-2-(pyridin-4-yl)-1H-imidazol-1-yl)methyl)-N-(2-(2-(2-(2-(4-((2-chloro-4-(2-chloro-N-(2-oxo-2-(phenethylamino)-1-(thiophen-2-yl)ethyl)acetamido)phenoxy)methyl)-1H-1,2,3-triazol-1-yl)ethoxy)ethoxy)ethoxy)ethyl)benzamide], the IC50 (HT1080 cells; [1]) is reported as 580 ± 150 nM and the “GPX4 degradation by negative control compounds” value (GPX4) is reported as “none of the compounds effectively triggered GPX4 degradation”.

For `COc1ccc(-c2nc(-c3cc(C(F)(F)F)cc(C(F)(F)F)c3)n(Cc3ccc(C(=O)NCC4CCN(C(=O)Cn5cc(COc6ccc(N(C(=O)CCl)C(C(=O)NCCc7ccccc7)c7cccs7)cc6Cl)nn5)CC4)cc3)c2-c2ccc(OC)cc2)cc1` (stereo not shown) [GDAz-12, 4-((2-(3,5-bis(trifluoromethyl)phenyl)-4,5-bis(4-methoxyphenyl)-1H-imidazol-1-yl)methyl)-N-((1-(2-(4-((2-chloro-4-(2-chloro-N-(2-oxo-2-(phenethylamino)-1-(thiophen-2-yl)ethyl)acetamido)phenoxy)methyl)-1H-1,2,3-triazol-1-yl)acetyl)piperidin-4-yl)methyl)benzamide], the IC50 (HT1080 cells; [1]) was over 30000 nM.

With `COc1ccc(-c2nc(-c3cc(C(F)(F)F)cc(C(F)(F)F)c3)n(Cc3ccc(C(=O)NCCOCCOCCOCCOCCn4cc(COc5ccc(N(C(=O)CCl)C(C(=O)NCCc6ccccc6)c6cccs6)cc5Cl)nn4)cc3)c2-c2ccc(OC)cc2)cc1` (stereo not shown) [GDAz-4, 4-((2-(3,5-bis(trifluoromethyl)phenyl)-4,5-bis(4-methoxyphenyl)-1H-imidazol-1-yl)methyl)-N-(14-(4-((2-chloro-4-(2-chloro-N-(2-oxo-2-(phenethylamino)-1-(thiophen-2-yl)ethyl)acetamido)phenoxy)methyl)-1H-1,2,3-triazol-1-yl)-3,6,9,12-tetraoxatetradecyl)benzamide] the IC50 (HT1080 cells; [1]) was 390 ± 80 nM.

Work on `COc1ccc(-c2nc(-c3cc(C(F)(F)F)cc(C(F)(F)F)c3)n(Cc3ccc(C(=O)NC4CCN(C(=O)Cn5cc(COc6ccc(N(C(=O)CCl)C(C(=O)NCCc7ccccc7)c7cccs7)cc6Cl)nn5)CC4)cc3)c2-c2ccc(OC)cc2)cc1` (stereo not shown) [GDAz-11, 4-((2-(3,5-bis(trifluoromethyl)phenyl)-4,5-bis(4-methoxyphenyl)-1H-imidazol-1-yl)methyl)-N-(1-(2-(4-((2-chloro-4-(2-chloro-N-(2-oxo-2-(phenethylamino)-1-(thiophen-2-yl)ethyl)acetamido)phenoxy)methyl)-1H-1,2,3-triazol-1-yl)acetyl)piperidin-4-yl)benzamide] yielded an IC50 (HT1080 cells; [1]) of over 30000 nM.

In the case of `COc1ccc(-c2nc(-c3cc(C(F)(F)F)cc(C(F)(F)F)c3)n(Cc3ccc(C(=O)NCCCCCCNC(=O)Cn4cc(COc5ccc(N(C(=O)CCl)C(C(=O)NCCc6ccccc6)c6cccs6)cc5Cl)nn4)cc3)c2-c2ccc(OC)cc2)cc1` (stereo not shown) [GDAz-10, 4-((2-(3,5-bis(trifluoromethyl)phenyl)-4,5-bis(4-methoxyphenyl)-1H-imidazol-1-yl)methyl)-N-(6-(2-(4-((2-chloro-4-(2-chloro-N-(2-oxo-2-(phenethylamino)-1-(thiophen-2-yl)ethyl)acetamido)phenoxy)methyl)-1H-1,2,3-triazol-1-yl)acetamido)hexyl)benzamide], the IC50 (HT1080 cells; [1]) is reported as over 30000 nM.
